Article PMC10530836, “Synthesis, Molecular Docking, and Biological Evaluation of Novel Anthranilic Acid Hybrid and Its Diamides as Antispasmodics” (International Journal of Molecular Sciences, 2023)

What was measured:
[1] = system: gastric smooth muscle preparations (SMPs) from Wistar rats; test: Ex vivo smooth muscle relaxant activity; design: species or system rat; conditions: for Tonic relaxation: 5 × 10^−5 mol/L, SM pre-contracted with 1 × 10^−7 mol/L CCh
Excerpt: The utilization of an SM preparation from the corpus of a rat stomach that had been pharmacologically pre-contracted was the main goal of our work. The excitatory neurotransmitter acetylcholine (ACh) in the enteric nervous system is appropriate for this purpose. It affects the digestive system by increasing the amplitude of digestive contractions and peristalsis in the stomach. We evaluated the viability of the SM using their stimulatory impact. Via muscarinic (M2 and M3) receptors, ACh and its counterpart cholinergic agonist carbachol (CCh, carbamylcholine) cause excitatory motor responses in GI SM cells. Unlike ACh, which breaks down quickly, CCh has a long-lasting response. Therefore, we used CCh to start the induced muscle contraction. […] A persistent, prolonged tonic contraction that is brought on by the extracellular inflow of Ca^2+ into SM cells occurs next. The relaxation effects of the tested compounds 3 and 4a–e were investigated by cumulative addition of the tested substances in concentrations of 1 × 10^−7, 5 × 10^−7, 1 × 10^−6, 5 × 10^−6, 1 × 10^−5, 5 × 10^−5, and 1 × 10^−4 mol/L at the plateau of the CCh-induced contraction. In order to measure relaxation, the percent decrease in contractile tension from the 1 × 10^−7 mol/L CCh-induced maximum was used. All subsequent reactions to chemicals were reported as a percentage of the submaximal SM contractile responses elicited by CCh, which were taken as 100% values and expressed as a base value for all subsequent responses (Figure 10A). Results were presented as mean ± SD.
SMPs with dimensions 1.0–1.5 mm wide and 10–12 mm long were obtained from adult male Wistar rats weighing about 270 g. […]
The pH of the solution was measured before each experiment using a pH-meter HI5521 (Hanna Instruments, Smithfield, RI, USA). […]
Experiments were performed to investigate the cumulative dose-dependent relaxation effects of compounds 3 and 4a–e on gastric SMPs, pre-contracted with CCh (1 × 10^−^7 mol/L). The CA of the SMPs and the changes in substance-evoked reactions were detected isometrically. […]

human albumin = target: T1, human albumin (Homo sapiens, UniProt P02768); test: Inhibition of albumin denaturation (anti-inflammatory activity); type: biochemical; conditions: heat-induced denaturation
T1 construct: purchased Octapharma (IP) SPRL Albunorm 20
Procedure: Anti-denaturation assay was conducted as described by Kumari et al. with slight modifications. The reaction mixture consisted of 0.5 mL of 5% aqueous solution of human albumin (Albunorm 20, Octapharma (IP) SPRL, 1070 Anderlecht, Belgium) and 0.2 mL of the tested compound, dissolved in DMSO, at different concentrations (20–500 μg/mL). The samples were incubated at 37 °C for 15 min. After that, 2.5 mL phosphate-buffered saline (pH 6.3) was added to each tube and the samples were heated for 30 min to 80 °C and then cooled for 5 min. Turbidity was measured spectrophotometrically at 660 nm (Cary 60 UV-Vis, Agilent Technologies, Santa Clara, CA, USA). For the blank sample, a mixture of 2.5 mL buffer and 0.2 mL DMSO was used instead of the compounds, while the product control test lacked the compounds’ concentration having 0.5 mL serum albumin, and 2.5 mL buffer only. The percentage inhibition of protein denaturation was calculated as follows:Percentage of inhibition denaturation = (Absorbancecontrol − Absorbancesample) / Absorbancecontrol × 100
The control represents 100% protein denaturation.
Commercially available over-the-counter non-steroidal anti-inflammatory drugs diclofenac sodium and acetylsalicylic acid were used for comparison. Their anti-inflammatory effect was determined as a percentage of inhibition of albumin denaturation following the same protocol as for the novel compounds.

T1 sequence (P02768 25-609): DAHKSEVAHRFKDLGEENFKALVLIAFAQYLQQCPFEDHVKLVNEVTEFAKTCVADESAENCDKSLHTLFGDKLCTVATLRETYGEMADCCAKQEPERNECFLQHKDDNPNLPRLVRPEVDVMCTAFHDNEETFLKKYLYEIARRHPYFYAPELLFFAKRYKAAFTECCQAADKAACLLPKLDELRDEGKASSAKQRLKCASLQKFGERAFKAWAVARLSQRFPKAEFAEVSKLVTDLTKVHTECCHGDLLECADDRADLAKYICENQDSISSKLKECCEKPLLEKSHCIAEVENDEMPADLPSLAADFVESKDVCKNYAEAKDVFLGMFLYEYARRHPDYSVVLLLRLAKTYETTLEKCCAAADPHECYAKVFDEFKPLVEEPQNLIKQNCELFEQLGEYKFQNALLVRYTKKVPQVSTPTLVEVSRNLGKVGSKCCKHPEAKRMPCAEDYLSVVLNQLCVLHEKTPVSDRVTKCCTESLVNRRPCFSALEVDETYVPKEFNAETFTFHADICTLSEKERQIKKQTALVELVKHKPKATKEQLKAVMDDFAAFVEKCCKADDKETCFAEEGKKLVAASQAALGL

Compound | Tonic relaxation [1] [%] | IC50 (human albumin) [mM] | effect on amplitude of spontaneous contractions ([1]; submaximal concentration of 5 × 10^−5 mol/L)
CC(=O)Nc1ccccc1C(=O)NCCc1cccc(Cl)c1 [Compound 4a, 2-acetamido-N-(3-chlorophenethyl)benzamide] | 52 | – | –
O=C(Nc1ccccc1C(=O)NCCc1cccc(Cl)c1)c1ccccc1 [Compound 4b, 2-benzamido-N-(3-chlorophenethyl)benzamide] | – | 1.95 | –
Nc1ccccc1C(=O)NCCc1cccc(Cl)c1 [Compound 3, 2-amino-N-(3-chlorophenethyl)benzamide] | 59 | 2.4 | more than 50%
